{"source": "patent US20150272955A1", "about": "“Triazolo[4,5-D]Pyrimidine Compounds For Treatment Of Abdominal Aortic Aneurysms” (AstraZeneca AB, priority 2007, published 2015)", "key": {"[1]": {"test_system": "experimental aortic aneurysms (decellularized guinea-pig aorta xenograft in rat aorta)", "test": "AAA model: external aneurysmal diameter after xenograft implantation", "format": "in vivo", "excerpt": "(§1) Experimental aortic aneurysms were induced by implanting a segment of sodium dodecyl sulfate-decellularized guinea-pig aorta (xenogenic matrix) in rat aortas (Allaire E. et al. (1994), J Vasc Surg 19:446-456). This AAA model is characterized by immuno-inflammatory injury of the xenogeneic extracellular matrix (Allaire E et al. (1997), Surgery 122:73-81; Allaire E et al. (1996), Transplantation 62:794-803). Briefly, 46 male Lewis rats (250 g) and 46 guinea-pigs (280 g) (Iffa Credo, Lyon, France) were housed according to the principles of Laboratory Animal Care formulated by the European Union. Animals were anaesthetized by intraperitoneal injection of pentobarbital (5 mg/100 g body weight). Guinea-pig infrarenal aortas (1.5 cm) were sampled and decellularized by sodium dodecyl sulfate treatment to obtain tubes of intact extracellular matrix, which were orthotopically transplanted into the aorta of Lewis rats with 10/0 nylon interrupted sutures (xenograft) (Allaire et al., 1997; Allaire et al., 1996). The initial diameter of the graft was measured in situ, immediately after unclamping, under a binocular microscope. After 24 h, rats were randomly assigned to two equal groups, treated with Compound (A) (10 mg/kg body weight twice daily by oral administration) or with the diluent of Compound (A) (1% carboxymethylcellulose/0.1% Tween-80 in water) for 10 days (D10, n=9 for each group) or 6 weeks (D42, n=14 for each group). At sacrifice, rats were deeply anesthetized, the graft diameter was measured again, and the aorta was dissected out and fixed in 4% paraformaldehyde. Aortic samples were embedded in paraffin and cut at 5 μm.\n(§2) Results are expressed as means±S.D. The percentage of diameter increase was calculated as follows: (diameter at harvest−diameter at grafting)×100/diameter at grafting. Comparisons between the two groups were made using the nonparametric Mann-Whitney U test (Statview, version 4.5). The frequency of aneurysms of large diameter in the different groups was analyzed by X^2 test. Simple regression analysis was used to test for correlations between various parameters. P<0.05 was considered significant."}, "[2]": {"test_system": "experimental aortic aneurysms (mural thrombus and aneurysmal wall)", "test": "AAA model: histological and immunohistochemical analysis of aneurysm", "format": "in vivo, rat", "excerpt": "as §1\nSections were stained with picro Sirius red to visualize collagen and fibrin and with orcein to visualize elastin. Immunohistochemistry was performed using anti-human α-actin (dilution 1:500, Dako, Trappes, France), anti-CD68 (macrophages, dilution 1:1000, Serotec, Cergy Saint-Christophe, France), anti-rat polymorphonuclear leukocytes (dilution 1:3000, Cedarlane, Ontario, Canada), anti-CD41 (integrin αIIb, platelets, dilution 1:50, Santa Cruz Biotechnologies) and anti-MMP-9 (dilution 1:50, Calbiochem, Darmstadt, Germany) as primary antibodies and a peroxidase Vector ABC kit for detection (Vector Labs, Burlingame, Calif., USA). Cells were counted with a grid in the microscope eyepiece and averaged in 4 symmetrical fields on the same slide. The size of the areas represented by thrombus, elastic fiber, AAA wall, and MMP-9- and CD41-positive staining were measured by morphometric analysis using Histolab software (Microvision Instruments, Evly, France). Thrombus areas were determined on Sirius red slides. The area occupied by positive staining was quantified by the color detecting mode of the computer program in the inner thrombus and outer wall.\nas §2"}, "[3]": {"conditions": "Day 42, 10 mg/kg twice daily oral"}}, "note": "“Also recorded” adds a separate entry of the source."}
{"smiles": "CCCSc1nc(N[C@@H]2C[C@H]2c2ccc(F)c(F)c2)c2nnn([C@@H]3C[C@H](OCCO)[C@@H](O)[C@H]3O)c2n1", "note": "(relative stereo) [Compound (A), {1S-[1α,2α,3β(1S*,2R*),5β]}-3-(7-{[2-(3,4-difluorophenyl)cyclopropyl]amino}-5-(propylthio)-3H-1,2,3-triazolo[4,5-d]pyrimidin-3-yl)-5-(2-hydroxyethoxyl)cyclopentane-1,2-diol]", "values": [{"measurement": "increase in aneurysmal diameter between Days 10 and 42", "setting": "[1]; 10 mg/kg twice daily oral", "value": "no increase in aneurysmal diameter was observed"}, {"measurement": "percent increase in external diameter vs control", "setting": "[1]; [3]", "value": "significantly reduced"}, {"measurement": "incidence of larger aneurysms (diameter >4 mm)", "setting": "[1]; Day 42, X^2=11.6, P<0.001", "value": "predominated in the control group"}, {"measurement": "increase in external aneurysmal diameter", "setting": "[1]; male Lewis rats, 10 mg/kg twice daily oral, 10 days, n=9", "value": "197.3±52.8", "unit": "%"}, {"measurement": "mean external aneurysmal diameter", "setting": "[1]; male Lewis rats, 10 mg/kg twice daily oral, Day 10", "value": "2.22±0.56", "unit": "mm"}, {"measurement": "mean external aneurysmal diameter", "setting": "[1]; male Lewis rats, 10 mg/kg twice daily oral, Day 42, n=14", "value": "3.61±1.46", "unit": "mm"}, {"measurement": "thrombus area/wall area", "setting": "[2]; Day 10, 10 mg/kg twice daily oral", "value": "0.07±0.05"}, {"measurement": "thrombus area/wall area", "setting": "[2]; [3]", "value": "0.35±0.44"}, {"measurement": "CD41-positive area (platelet marker) within the thrombus", "setting": "[2]; Day 42, P=0.005 vs control", "value": "0.13±0.16"}, {"measurement": "MMP-9-positive area in the thrombus and the wall", "setting": "[2]; Day 42, immunostaining", "value": "markedly reduced"}, {"measurement": "slope (s) of correlation between thrombus area and aneurysm diameter", "setting": "[2]; Day 42, intragroup analysis", "value": 0.17}, {"measurement": "infiltration of PMNs into the mural thrombus", "setting": "[2]; Days 10 and 42", "value": "significantly inhibited"}, {"measurement": "infiltration of macrophages into the mural thrombus", "setting": "[2]; Days 10 and 42", "value": "significantly inhibited"}, {"measurement": "macrophage infiltration into the aneurysmal wall", "setting": "[2]; Days 10 and 42", "value": "did not reach statistical significance; also recorded: no change"}, {"measurement": "elastic fibers of the media (elastic lamellae area)", "setting": "[2]; Days 10 and 42, orcein staining", "value": "significant preservation"}, {"measurement": "SMC colonization of the wall", "setting": "[2]; after 10 or 42 days", "value": "did not affect"}, {"measurement": "density of SMCs within the thrombus", "setting": "[2]; treatment for 10 days, α-actin staining", "value": "did not modify"}, {"measurement": "SMC colonization of the thrombus", "setting": "[2]; treatment for 42 days, α-actin staining", "value": "significantly improved"}]}
